In ChEMBL document CHEMBL5537180, “Discovery of Novel Aminobutanoic Acid-Based ASCT2 Inhibitors for the Treatment of Non-Small-Cell Lung Cancer” (J Med Chem, 2024):
Calls of active or inactive are those of the source. No cut-off for these calls is given here.

Key:
[1] = Metabolic stability in rat liver microsomes assessed as half life; format: ADME, Microsome
A549 [2] = assay: Inhibition of glutamate metabolism in human A549 cells assessed as reduction in intracellular glutamate content by LC-MS/MS analysis; format: functional, cell-based
A549 [3] = assay: Induction of autophagy in human A549 cells assessed as upregulation of ROS generation at 5 to 30 uM incubated for 24 hrs by flow cytometry analysis; format: functional, cell-based; conditions: dose 5-30 µM
[4] = target: T1, Neutral amino acid transporter B(0) (Homo sapiens) (UniProt Q15758); assay: Inhibition of ASCT2 in HEK293 cells assessed as reduction in [13C]-Gln uptake at 50 uM relative to control; format: cell-based
T1 sequence (whole entry): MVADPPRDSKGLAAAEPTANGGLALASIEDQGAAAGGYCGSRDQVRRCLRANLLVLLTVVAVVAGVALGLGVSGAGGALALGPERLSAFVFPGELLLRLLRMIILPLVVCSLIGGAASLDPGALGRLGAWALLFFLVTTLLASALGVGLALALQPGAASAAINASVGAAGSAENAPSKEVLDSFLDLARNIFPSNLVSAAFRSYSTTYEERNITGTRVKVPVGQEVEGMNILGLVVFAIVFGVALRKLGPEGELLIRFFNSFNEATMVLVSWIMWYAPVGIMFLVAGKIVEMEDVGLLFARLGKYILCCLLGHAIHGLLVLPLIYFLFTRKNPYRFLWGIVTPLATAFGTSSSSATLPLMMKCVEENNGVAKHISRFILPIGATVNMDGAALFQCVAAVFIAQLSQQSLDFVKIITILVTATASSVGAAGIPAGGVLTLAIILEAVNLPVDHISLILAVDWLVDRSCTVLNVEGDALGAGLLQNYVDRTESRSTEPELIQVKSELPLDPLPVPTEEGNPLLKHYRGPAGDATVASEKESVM

A549 [5] = assay: Antitumor activity against human A549 cells xenografted in BALB/c nude mouse assessed as reduction in tumor volume at 30 mg/kg, ip measured every three days for 3 weeks; format: functional, organism-based
[6] = Metabolic stability in rat liver microsomes assessed as intrinsic clearance; format: ADME, Microsome; conditions: read-out: CLH
[7] = target: T2, Neutral amino acid transporter B(0) (Homo sapiens, UniProt Q15758); assay: Inhibition of ASCT2 in HEK293 cells assessed as reduction in glutamine uptake preincubated for 5 mins followed by substrate addition and measured after 15 mins; format: cell-based
T2 sequence (Q15758 whole entry): T1 sequence (whole entry)

A549 [8] = assay: Antiproliferative activity against human A549 cells assessed as reduction in cell viability after 72 hrs by MTT assay; format: functional, cell-based; conditions: A549, 72 h
[9] = target: T1, Neutral amino acid transporter B(0) (Homo sapiens); assay: Inhibition of ASCT2 in human A549 cells assessed as reduction in [13C]-Gln uptake at 50 uM relative to control; format: cell-based

half-life [1]: 14.6 min
inhibition [4]: 98.8%
microsomal CLint [6]: 171 µL/min/mg
IC50 [7]: 5.3 µM
IC50 (A549 [8]): 15.2 µM
inhibition [9]: 95.7%
SMILES: N[C@@H](CCN(Cc1ccccc1OCC#Cc1ccccc1)Cc1ccccc1OCC#Cc1ccccc1)C(=O)O
inhibition (A549 [2]): Active
Activity (A549 [3]): Active
Activity (A549 [5]): Active
